Assay results: patent US6262095A, “Use of tricyclic derivatives of 1,4-dihydro-1,4-dioxo-1H-naphthalene, novel compounds obtained and their application in theraphy” (Laboratoire Innothera, priority 1995, dated 2001)
Read-outs that look alike come from different tables or passages of the source.

Key:
[1] = tested on: hyperpermeability induced by zymosan in rats; assay: Inflammatory hyperpermeability induced by zymosan in rats; assay type: in vivo, rat (Wistar); details: rat, oral
Method: The vascular permeability is studied in vivo by measuring the extravasation of albumin, the quantity of which is determined using an albumin-binding dye (Evans blue).
The hyperpermeability is induced by the intradermal injection of a solution of histamine, bradykinin, or zymosan.
The abdominal walls of the rats (Wistar, 200-230 g) are shorn 1 h before the start of the experiment. The product to be tested is injected by the intraperitoneal route or orally 1-4 h before the sacrifice. The rats are anesthetized with a halothane mixture. They then receive an intradermal injection in their abdomen of 0.10 or 0.15 mL (or for histamine 6.7 or […]) of inflammatory agent and an intravenous injection of 1 mL of 0.5% Evans blue solution in the vein of the penis. These injections are carried out 30 min before the sacrificing.
30 min after these two injections, the rats are sacrificed by cervical dislocation.
At the site of the injection of the inflammatory agent, the skin is cut and placed into glass tubes with a ground[-glass] neck containing 3 mL of fuming hydrochloric acid. […] After allowing the preparation to stand for 30 min, 7 mL of dichloromethane are added. The tubes are periodically agitated for 1 h. The aqueous phase is eliminated by aspiration, and the organic "dichloromethane" phase is filtered. The optical densities are quantified by absorption spectrophotometry at a wavelength of 620 nm, against a blank [control] containing only dichloromethane. The averages of the optical densities of the different lots of treated or control animals are calculated, then a percentage of variation of the values corresponding to the treated [experimental] animals compared to those of the control animals is calculated.

[2] = tested on: saphenous vein in rabbits; assay: Contractile effect on the rabbit saphenous vein precontracted by a depolarizing physiological solution (K+ 40 mM); assay type: cell-based; details: precontracted with 40 mM potassium; for EC50: read-out: ED50 (the source's name)
Method: The contractile effects are measured in vitro under static conditions on vascular capacitance or resistance rings of saphenous, femoral, jugular, mesenteric, and caval veins . . . and on femoral, carotid, basilar, or mesenteric arteries, as well as the thoracic or abdominal aorta . . . in rats (Wistar, 200-250 g), rabbits (New Zealand, 2-2.5 kg), guinea pigs (Dunkin Hartley 250-300 g).
The rings are placed in a chamber for isolated organs (25 mL for capacitance vessels and 2.5 mL for resistance vessels according to Mulvany), and maintained under isometric conditions using two rigid threads inserted inside the vessel, avoiding causing damage to the endothelium. The vessels are bathed in a modified Krebs solution (in mM: NaCl=118; KCl=4.6; CaCl2 =2.5; MgSO4 =1.2; KH2 PO4 =1.17; NaHCO3 =25; glucose=11), continuously aerated using a gaseous mixture of 95% O2 and 5% Co2, at a pH=7.4, and regulated by thermostat at 37° C. The rings are adjusted to their optimal point as far as the tension-length relationship is concerned. The tensions developed generate an electrical signal through the intermediary of a force sensor (Wheatstone bridge). […] The pharmacological studies are carried out after a few standardized preliminary contractile stimulations using a depolarizing solution (hyperpotassic type obtained by replacing NaCl with KCl in equimolar quantities), along with rinsings and periods of equilibration in a pure physiological solution. The presence of endothelium is verified by the relaxation induced by increasing the concentration of acetylcholine after the stabilization of a vascular precontraction.
The forces of contraction developed by the vascular rings in response to the different compounds are studied on quiescent or electrically stimulated vessels (5-8 Hz), by a "physiological" depolarizing hyperpotassic solution (KCl: 20, 40 mM), by noradrenaline (increasing concentrations), [and by] serotonin (increasing concentrations).
The contractions are expressed in mg force or as a percentage of the maximum contraction at the time of the depolarization with a "physiological" hyperpotassic solution.
The contractile effect of different compounds on the saphenous vein in rabbits, precontracted by a depolarizing "physiological" solution with a potassium concentration of 40 mM, is given as an illustration; the maximum effect produced by each compound is expressed as a percentage of the maximum contraction induced by depolarizing hyperpotassic solutions and as value of ED50): […]

[3] = tested on: capillary resistance of rats; assay: Capillary resistance of rats after oral administration (petechial index); assay type: in vivo, rat (Wistar); details: rat
Method: The increase in the capillary resistance is evaluated by the modification of the petechial index (negative pressure inducing the extravasation of the erythrocytes), measured by a method derived from the angiosterrometer of Parrot.
The studies are carried out on male Wistar rats with an average weight of 200 g (approximate age six weeks). The bottom area of the back is shorn, then the hair is pulled by means of a paste based on a derivative of thioglycolic acid and calcium hydroxide. After approximately 30 min, the skin is abundantly rinsed and dried.
On the day of the study, the rats are maintained without constraint. A low pressure of 80 mm of mercury is applied. If the petechiae (extravasation of erythrocytes) have not appeared within 15 sec, the low pressure is increased as a countermeasure, keeping the suction cap at the same place.
The minimum low pressure where petechias appear, in mm of mercury, expresses the basal capillary resistance (before any treatment). Two measurements are made for each test at different sites on of the back.
The rats are treated by the oral route. […] All the measurements are done in the blind mode.
A percentage of variation in the capillary resistances of the animals treated compared to their basal capillary resistance is calculated for each compound studied, at each treatment time and compared with the control group (excipient only) or the reference group.

mice = assay: Single oral administration toxicity in mice; assay type: in vivo, mouse; details: single oral administration of 500 mg/kg
From the text: Moreover, the compounds of the invention and their possible salts have a very low toxicity.

[4] = Oryctolagus cuniculus, % of maximum contraction induced by hyperpotassic solutions
[5] = 0.1 mg/kg, ** granulometry: 0.6-0.7 mm

Row | Compound | Zymosan-induced hyperpermeability, effect after 2 h ([1]; 0.1 mg/kg) | Zymosan-induced hyperpermeability, effect after 4 h ([1]; 0.1 mg/kg) | Emax [2, 4] [%] | EC50 ([2]; Oryctolagus cuniculus) [nM] | other results
1 | COc1ccc2c(c1)C(=O)c1nc(-c3ccccc3)sc1C2=O [Example 26, 4,9-Dihydro-4,9-dioxo-6-methoxy-2-phenylnaphtho[2,3-d]thiazole] | -14 % of the control | -24 % of the control | – | – | –
2 | COc1ccc2c(c1)C(=O)c1sc(-c3ccccc3)nc1C2=O [Example 25, 4,9-Dihydro-4,9-dioxo-7-methoxy-2-phenylnaphtho[2,3-d]thiazole] | -14 % of the control | -17 % of the control | – | – | –
3 | O=C1c2ccccc2C(=O)c2sc(-c3ccccn3)nc21 [Example k, 4,9-Dihydro-4,9-dioxo-2-(2-pyridyl)-naphtho[2,3-d]thiazole] | – | – | 26 ± 9 | 70 | –
4 | 4,9-Dihydro-4,9-dioxo-2-(2-furyl)-5-hydroxynaphtho-[2,3-d]thiazole or 4,9-Dihydro-4,9-dioxo-2-(2-furyl)-8-hydroxynaphtho-[2,3-d]thiazole [Example 57] | – | – | – | – | Emax (% maximum contraction) ([2]; % of maximum contraction induced by hyperpotassic solutions): 22±3 % maximum contraction; EC50 [2]: 41 nM
5 | O=C1c2ccccc2C(=O)c2oc(-c3ccc(Cl)cc3)nc21 [Example 10, 2-(4-Chlorophenyl)-4,9-dihydro-4,9-dioxo-naphtho[2,3-d]oxazole] | – | – | – | – | Increase of capillary resistance, effects after 4 h ([3]; 0.1 mg/kg): 25 % of the control; Increase of capillary resistance, effect after 6 h ([3]; 0.1 mg/kg): 46 % of the control
6 | O=C1c2ccccc2C(=O)c2sc(-c3ccc(F)cc3)nc21 [Example 14, 4,9-Dihydro-4,9-dioxo-2-(4-fluorophenyl)naphtho[2,3-d]thiazole] | -31 % of the control | -15 % of the control | – | – | –
7 | Cc1ccc(-c2nc3c(s2)C(=O)c2ccccc2C3=O)o1 [Example 38, 4,9-Dihydro-4,9-dioxo-2-(5-methyl-2-furyl)naphtho-[2,3-d]thiazole] | -12 % of the control | -3 % of the control | 12 ± 1 | 160 | –
8 | O=C1c2ccccc2C(=O)c2sc(-n3cccc3)nc21 [Example 28, 4,9-Dihydro-4,9-dioxo-2-(1-pyrrolyl)-naphtho-[2,3]-thiazole] | – | – | 29 ± 2 | 37 | Increase of capillary resistance, effects after 4 h [3, 5]: 10 % of the control; Increase of capillary resistance, effect after 6 h [3, 5]: 13 % of the control; Zymosan-induced hyperpermeability, effect after 2 h ([1]; 5 mg/kg): -29 % of the control; Zymosan-induced hyperpermeability, effect after 4 h ([1]; 5 mg/kg): 0 % of the control
9 | COc1ccc2c(c1)C(=O)c1sc(-c3ccco3)nc1C2=O [Example 59, 4,9-Dihydro-4,9-dioxo-2-(2-furyl)-7-methoxynaphtho-[2,3-d]thiazole] | -13 % of the control | +21 % of the control | 18 ± 4 | 53 | –
10 | Cc1ccccc1-c1nc2c(o1)C(=O)c1ccccc1C2=O [Example 6, 4,9-Dihydro-4,9-dioxo-2-(2-methylphenyl)-naphtho[2,3-d]oxazole] | – | – | – | – | toxic effect and mortality (mice): no observable toxic effect and no mortality
11 | O=C1c2ccccc2C(=O)c2sc(-c3ccncc3)nc21.O=S(=O)(O)O [Example 17, 4,9-Dihydro-4,9-dioxo-2-(4-pyridyl)-naphtho[2,3-d]thiazole sulfate] | -15 % of the control | -23 % of the control | – | – | –
12 | Cc1nc2c(n1C)C(=O)c1ccccc1C2=O.O=S(=O)(O)O [Example 1, 4,9-Dihydro-4,9-dioxo-1,2-dimethyl-1H-naphtho[2,3-d]imidazole sulfate] | – | – | – | – | Increase of capillary resistance, effects after 4 h ([3]; 0.1 mg/kg): 37 % of the control; Increase of capillary resistance, effect after 6 h ([3]; 0.1 mg/kg): 35 % of the control; Zymosan-induced hyperpermeability, effect after 2 h ([1]; 5 mg/kg): -28 % of the control; Zymosan-induced hyperpermeability, effect after 4 h ([1]; 5 mg/kg): -28 % of the control
13 | O=C1c2ccccc2C(=O)c2sc(-c3ccc(Cl)o3)nc21 [Example 19, 2-(5-Chloro-furan-2-yl)-4,9-dihydro-4,9-dioxo-naphtho[2,3-d]thiazole] | – | – | 20 ± 8 | 75 | –
14 | O=C1c2ccccc2C(=O)c2[nH]c(-c3ccccc3F)nc21 [Example 2, 4,9-Dihydro-4,9-dioxo-2-(2-fluorophenyl)-1H-naphtho[2,3-d]imidazole] | – | – | – | – | Increase of capillary resistance, effects after 4 h ([3]; 0.1 mg/kg): 25 % of the control; Increase of capillary resistance, effect after 6 h ([3]; 0.1 mg/kg): 28 % of the control
15 | Nc1nc2c(s1)C(=O)c1ccccc1C2=O [Example i, 2-Amino-4,9-dihydro-4,9-dioxonaphtho[2,3-d]thiazole] | – | – | 18 ± 1 | 90 | –
16 | O=C1c2ccccc2C(=O)c2sc(-c3ccc(F)cc3F)nc21 [Example 15, 2-(2,4-Difluorophenyl)-4,9-dihydro-4,9-dioxo-naphtho[2,3-d]thiazole] | – | – | – | – | Increase of capillary resistance, effects after 4 h ([3]; 0.1 mg/kg): 20 % of the control; Increase of capillary resistance, effect after 6 h ([3]; 0.1 mg/kg): 27 % of the control
17 | Cc1cccc(-c2nc3c(o2)C(=O)c2ccccc2C3=O)c1 [Example 7, 4,9-Dihydro-4,9-dioxo-2-(3-methylphenyl)-naphtho[2,3-d]oxazole] | – | – | 17 ± 2 | 36 | –
18 | O=C1c2ccccc2C(=O)c2sc(-c3ccoc3)nc21 [Example 18, 4,9-Dihydro-4,9-dioxo-2-(3-furyl)naphtho[2,3-d]thiazole] | – | – | 39 ± 6 | 88 | Increase of capillary resistance, effects after 4 h ([3]; 5 mg/kg): 25 % of the control; Increase of capillary resistance, effect after 6 h ([3]; 5 mg/kg): 28 % of the control
